Details: Liquid, Ebulliometric method (Recirculating still)

C [methane]
Details | vapor or sublimation pressure [kPa]
126.01 K | 286.85
127.99 K | 324.94
130.02 K | 367.76
132.01 K | 413.65
133.98 K | 463.11
135.99 K | 517.9
137.97 K | 576.38
140.01 K | 641.51

From the NIST ThermoML archive (doi:10.1021/je300843n)
